Values of other authors, collected in US20060286164A1 (priority 2004, published 2006).
“Also recorded” adds a separate entry of the source. Where two headings read alike, the source gives them in different places.

Tests used:
[1] = not given; remark: listed apart in the source
[2] = tested on: Guinea Pig; conditions: in vivo, po
[3] = tested on: mouse; conditions: in vivo, po
[4] = tested on: rat
[5] = set by WHO from metabolic and toxicological data

Which solubility in water does the source give for CC(C)Cc1ccc(C(C)C(=O)O)cc1 (racemic) [Ibuprofen, 2-(4-Isobutylphenyl)Propionic acid] here?
The solubility in water was “practically insoluble; also recorded: not soluble”.

Which solubility in water does the source give for CC(C)Cc1ccc([C@H](C)C(=O)O)cc1 [(S)-(+)-Ibuprofen] here?
The solubility in water was “not soluble”.

With CCO [Ethanol, Ethyl alcohol] as the compound, how does the miscibility ([1]; chloroform, ether, glycerin and water) read?
The miscibility was “miscible”.

And the LD50 [2]?
The LD50 was 5560 mg/kg.

And the LD50 [3]?
The LD50 was 7500 mg/kg.

Which LD50 ([4]; IV) does the source give for CCCCCCCC/C=C\CCCCCCCC(=O)O [Oleic acid, (Z)-9-Octadecenoic acid] here?
Its LD50 is 2.4 mg/kg.

For CCOCCOCCO [Transcutol, Diethylene glycol monoethyl ether], which solubility ([1]; ethanol, hexylene glycol and propylene glycol) is on record?
The solubility was “soluble”.

And the solubility ([1]; vegetable oil)?
Its solubility is “partially soluble”.

And the LD50 ([4]; in vivo, po)?
Its LD50 is 7.5 mg/kg.

What about the solubility in water of the same compound?
Its solubility in water is “soluble”.

For CC(O)CO (stereo not shown) [propylene glycol, Propylene glycol], which acceptable daily intake [5] is on record?
Its acceptable daily intake is “up to 25 mg/kg body weight”.

What does the source list for Vitamin E?
solubility ([1]; acetone, ethanol, ether and vegetable oil): freely soluble; solubility in water: practically insoluble
